Measurements taken from paper PMC9890698 (BMC Biology, 2023).
Values joined by “and” are separate entries in the source; they are usually repeats but may differ in a detail not shown here. Equal values may be shown once.

Experiments:
[1] = target: T1, Human P2Y1-R (Homo sapiens, UniProt P47900); assay: β-arrestin 2 recruitment BRET1 assay (β-arrestin 2-RLuc / P2Y1-R-Venus) in HEK293T cells; type: cell-based; settings: for b-arrestin 2 signaling, Ligand-modulated BRET (% of maximum MRS2179 mean value): Figure 4b, individual replicates; for Effect on β-arrestin 2 recruitment / BRET signal between P2Y1-R-Venus and β-arrestin 2-RLuc: HEK293T cells, high P2Y1-R expression, result in words; for EC50 / pEC50 ± s.e.m.: β-Arrestin 2 signaling, Fig. 4b, 15 min
T1 construct: expressed in transfected cells; host or cells: HEK293T/17
T1 sequence (P47900 whole entry): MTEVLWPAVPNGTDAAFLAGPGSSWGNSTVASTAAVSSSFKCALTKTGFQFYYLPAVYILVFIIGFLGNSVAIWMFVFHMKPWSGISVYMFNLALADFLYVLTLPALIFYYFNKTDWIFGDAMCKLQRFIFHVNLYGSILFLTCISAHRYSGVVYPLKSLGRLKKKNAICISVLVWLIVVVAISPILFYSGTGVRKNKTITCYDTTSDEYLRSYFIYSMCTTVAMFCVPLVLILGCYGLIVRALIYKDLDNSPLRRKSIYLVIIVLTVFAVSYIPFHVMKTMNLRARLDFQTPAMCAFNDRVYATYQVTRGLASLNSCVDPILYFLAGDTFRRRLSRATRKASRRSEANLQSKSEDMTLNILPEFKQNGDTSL
Excerpt: We assessed β-arrestin 2 recruitment to the receptor using BRET^1 assay. The assay measures the interaction between β-arrestin 2 fused to the Renilla reniformis luciferase (RLuc) energy donor and the receptor fused to fluorescent Venus energy acceptor (Fig. 3a). The recruitment of cytosolic β-arrestin 2 to the receptor at the plasma membrane in the presence of an agonist will promote a significant increase of the BRET signal compared to the basal state, reflecting the close proximity between the β-arrestin 2 energy donor and the receptor energy acceptor [22].
Human P2Y1-R (NCBI Reference Sequence: NM_002563.2) and P2Y12-R (NCBI Reference Sequence: NM_022788.3) were fused to double Myc epitope and rat AT1-R (NCBI Reference Sequence: NM_030985.4) to HA tag in N-terminus extracellular region. Alternatively, receptors were also fused to Venus tag in C-terminus intracellular region. Plasmids encoding Gαq-RLuc8, GFP2-Gγ2 and untagged Gβ1 were previously described. ADP was purchased from Sigma-Aldrich/Merck (Darmstadt, Germany). […] The Gq inhibitor (FR900359) was kindly supplied by Evi Kostenis (University of Bonn. Germany).
G protein activation and β-arrestin 2 recruitment were performed as previously described. Briefly, vectors encoding receptors, Gαq-RLuc8, GFP2-Gγ2, Gβ1, or β-arrestin 2 were transiently cotransfected into HEK293T/17 cells as indicated in the figure legends. Forty-eight hours after transfection, cells were washed and resuspended in PBS containing 0.1% (w/v) glucose at room temperature and then distributed (80 μg proteins/well) in a 96-well microplate (PerkinElmer). For G protein activation experiments (BRET^2), cells were incubated in the absence (basal BRET signal) or in the presence of ligand for 1 minute. BRET signal between RLuc8 and GFP2 was measured after addition of the luciferase substrate coelenterazine 400a (5 μM). For β-arrestin 2 recruitment (BRET^1), cells were stimulated with ligands for 5 or 15 min. BRET signal was recorded after incubation with coelenterazine h (5 μM) for 8 min. For kinetics studies, BRET signal between RLuc and Venus was recorded at 20-s intervals at basal state for the 2 first minutes and then for 5 min after ligand injection. For saturation curves (BRET^1), the expression level of Venus- or RLuc-tagged protein was determined by direct measurement of total fluorescence and luminescence respectively. Total fluorescence was first measured with an excitation filter at 485 nm and an emission filter at 520 nm. Then, the same sample was incubated for 8 minutes with 5 μM coelenterazine h and the total luminescence was measured. BRET^2 and BRET^1 readings were collected using a modified Infinite F500 (Tecan Group Ltd). The BRET^2 signal was calculated by the ratio of emission of GFP2 (510–540 nm) to RLuc8 (370–450 nm) and the BRET^1 signal by the ratio of emission of Venus (520–570 nm) to RLuc (370–480 nm). Sometimes, results are expressed as the Net BRET computed by deducting the BRET background signal (obtained in the presence of the energy donor alone) from the BRET signal (acquired from cells expressing both the energy donor and acceptor).

[2] = system: washed human platelets (P2Y1-R/Gαq signaling); assay: IP1 accumulation assay (HTRF) in washed human platelets; type: cell-based; settings: washed human platelets, ADP 100 μM, antagonists 10 μM, Gq inhibitor 100 nM, 2 h, apyrase 0.02 U/mL, result in words
Method: (§1) As performed in HEK293T cells, we thus quantified intracellular IP1 levels to monitor Gαq protein-dependent signaling pathways.
Human platelets were prepared from adult healthy volunteers free of antiplatelet or anti-inflammatory medication since at least ten days. […] After two steps of centrifugation and suspension in Tyrode’s buffer (140 mM NaCl, 5 mM KCl, 5 mM KH2PO4, 1 mM MgSO4, 10 mM HEPES, 5 mM glucose and 0.35% (w/v) BSA, pH 6,7), washed platelets were suspended in the same buffer adjusted to pH 7.4 and containing 1 mM CaCl2. The final platelet suspension was adjusted to 3.10^8 platelets/mL and rested for 45 min in the presence of 0.02 U/mL apyrase and 10 μM indomethacin at 37 °C prior experiments. PGI2 (0.5 μM) was added before centrifugation steps to avoid platelet activation.
(§2) Quantification of intracellular IP1 was performed using the HTRF (Homogeneous Time Resolved Fluorescence) IP1 competitive immunoassay (IP-One Tb kit. Cisbio. France) according to the manufacturer’s instructions. Briefly, 20,000 HEK293T/17 cells or 3.10^6 platelets were distributed in a 384-well white microplate (Greiner) and incubated with the indicated molecules for 30 min or 2 h at 37 °C in the presence of 50 mM of LiCl to prevent IP1 degradation. After addition of d2-labeled IP1 (acceptor) and anti-IP1-Cryptate (donor) for 1 h, the specific FRET signals were calculated by the fluorescence ratio of the acceptor and donor emission signal (665/620 nm) collected using a modified Infinite F500 (Tecan Group Ltd). Conversion of the HTRF ratio of each sample into IP1 concentrations was performed on the basis of a standard curve to determine the linear dynamic range of the assay.

[3] = target: T1, Human P2Y1-R; assay: IP1 accumulation assay (HTRF) in HEK293T cells expressing P2Y1-R; type: cell-based; settings: ADP 100 μM, MRS2179 10 μM, Gq inhibitor 100 nM, 2 h, result in words
Excerpt: Since Gαq protein activation is known to induce PLC activation leading to IP3 and subsequent cytosolic calcium release, we analyzed the constitutive Gαq-dependent P2Y1-R signaling by quantifying intracellular inositol monophosphate (IP1) using a monoclonal antibody-based competitive ELISA. IP1 is a downstream metabolite of IP3 that accumulates in cells following Gαq protein-coupled receptor activation, making it an ideal readout for Gαq protein-dependent signaling pathways.

[4] = system: washed murine platelets (P2Y1-R/Gαq signaling); assay: IP1 accumulation assay (HTRF) in washed murine platelets; type: cell-based, mouse; settings: washed murine platelets, ADP 100 μM, MRS2179 10 μM, Gq inhibitor 100 nM, 2 h, apyrase 0.02 U/mL, result in words
Method: as §1
Platelet-rich plasma (PRP) was obtained by mixing blood with 1 volume of modified Hepes Tyrode’s buffer (137 mM NaCl, 2 mM KCl, 12 mM NaHCO3, 0.3 mM NaH2PO4, 1 mM MgCl2, 2 mM CaCl2, 5.5 mM glucose, 5 mM HEPES, and 0.35% (w/v) BSA, pH 6.7) followed by a centrifugation at 150 g for 2 min at 37 °C. Then, platelets were pelleted by centrifugation at 1000 g for 4 min, resuspended in modified Hepes Tyrode’s buffer (pH 7.4), adjusted to 3.10^8 platelets/mL in the presence of 0.02 U/mL of apyrase and 10 μM indomethacin and rested for 45 minutes at 37°C before platelet stimulation. PGI2 (0.5 μM) was added before centrifugation steps to avoid platelet activation.
as §2

SMILES	b-arrestin 2 signaling, Ligand-modulated BRET (% of maximum MRS2179 mean value) ([1]; [Ligand] 1.00E-04 M)	b-arrestin 2 signaling, Ligand-modulated BRET (% of maximum MRS2179 mean value) ([1]; [Ligand] 1.00E-05 M)	b-arrestin 2 signaling, Ligand-modulated BRET (% of maximum MRS2179 mean value) ([1]; [Ligand] 1.00E-06 M)	b-arrestin 2 signaling, Ligand-modulated BRET (% of maximum MRS2179 mean value) ([1]; [Ligand] 1.00E-07 M)	b-arrestin 2 signaling, Ligand-modulated BRET (% of maximum MRS2179 mean value) ([1]; [Ligand] 1.00E-08 M)	b-arrestin 2 signaling, Ligand-modulated BRET (% of maximum MRS2179 mean value) ([1]; [Ligand] 1.00E-09 M)	b-arrestin 2 signaling, Ligand-modulated BRET (% of maximum MRS2179 mean value) ([1]; [Ligand] 1.00E-10 M)	Effect on β-arrestin 2 recruitment / BRET signal between P2Y1-R-Venus and β-arrestin 2-RLuc [1]	Signaling bias (β-arrestin 2 versus Gαq protein signaling) ([1]; compared to MRS2179, from potencies of Table 1)	EC50 [1]	pEC50 ± s.e.m. [1]	Effect on IP1 levels [2]	Effect on IP1 production [3]	Effect on IP1 levels [4]
CNc1nc(I)nc2c1ncn2[C@H]1C[C@H](OP(=O)(O)O)[C@]2(COP(=O)(O)O)C[C@H]12 [MRS2500, 2-iodo-N6-methyl-(N)-methanocarba-2′-deoxyadenosine-3′,5′-bisphosphate]	-104.002 % of maximum MRS2179 mean value and -94.5729 % of maximum MRS2179 mean value and -88.0915 % of maximum MRS2179 mean value and -87.9506 % of maximum MRS2179 mean value and -95.5776 % of maximum MRS2179 mean value	-100.008 % of maximum MRS2179 mean value and -86.7675 % of maximum MRS2179 mean value and -90.0217 % of maximum MRS2179 mean value and -77.5434 % of maximum MRS2179 mean value and -80.2036 % of maximum MRS2179 mean value	-95.5169 % of maximum MRS2179 mean value and -78.4136 % of maximum MRS2179 mean value and -91.3759 % of maximum MRS2179 mean value and -80.0813 % of maximum MRS2179 mean value and -75.5319 % of maximum MRS2179 mean value	-75.2707 % of maximum MRS2179 mean value and -41.8369 % of maximum MRS2179 mean value and -76.2614 % of maximum MRS2179 mean value and -66.0129 % of maximum MRS2179 mean value and -61.7221 % of maximum MRS2179 mean value	-7.396 % of maximum MRS2179 mean value and -28.7379 % of maximum MRS2179 mean value and -20.7409 % of maximum MRS2179 mean value and -45.6895 % of maximum MRS2179 mean value and -5.348 % of maximum MRS2179 mean value	-12.4711 % of maximum MRS2179 mean value and -18.0888 % of maximum MRS2179 mean value and -11.5273 % of maximum MRS2179 mean value and -5.043 % of maximum MRS2179 mean value and 9.479 % of maximum MRS2179 mean value	-23.8118 % of maximum MRS2179 mean value and -10.0375 % of maximum MRS2179 mean value and -6.745 % of maximum MRS2179 mean value and -2.51 % of maximum MRS2179 mean value and -4.926 % of maximum MRS2179 mean value	behaved as inverse agonists	biased inverse agonist	0.0475 µM	7.323 ± 0.1193	inverse agonist efficacy	–	–
Nc1ncnc2c1ncn2[C@@H]1O[C@H](COP(=O)(O)OP(=O)(O)O)[C@@H](O)[C@H]1O [ADP, adenosine diphosphate]	–	–	–	–	–	–	–	–	–	–	–	significantly increased	slightly but significantly potentiated	significantly increased
CNc1nc(Cl)nc2c1ncn2[C@H]1CC(OP(=O)(O)O)[C@]2(COP(=O)(O)O)C[C@H]12 (stereo in doubt) [MRS2279]	-69.6106 % of maximum MRS2179 mean value and -105.156 % of maximum MRS2179 mean value and -85.2747 % of maximum MRS2179 mean value and -86.0383 % of maximum MRS2179 mean value and -102.622 % of maximum MRS2179 mean value	-58.9493 % of maximum MRS2179 mean value and -35.292 % of maximum MRS2179 mean value and -0.8674 % of maximum MRS2179 mean value and -67.8538 % of maximum MRS2179 mean value and -74.7757 % of maximum MRS2179 mean value	-39.831 % of maximum MRS2179 mean value and -16.8165 % of maximum MRS2179 mean value and 4.878 % of maximum MRS2179 mean value and -40.0637 % of maximum MRS2179 mean value and -56.9245 % of maximum MRS2179 mean value	-39.6457 % of maximum MRS2179 mean value and -31.8109 % of maximum MRS2179 mean value and -14.3137 % of maximum MRS2179 mean value and -31.2635 % of maximum MRS2179 mean value and -51.8509 % of maximum MRS2179 mean value	-22.0748 % of maximum MRS2179 mean value and -36.9002 % of maximum MRS2179 mean value and -1.913 % of maximum MRS2179 mean value and -12.8092 % of maximum MRS2179 mean value and -19.8439 % of maximum MRS2179 mean value	-17.6957 % of maximum MRS2179 mean value and -18.0324 % of maximum MRS2179 mean value and -16.7903 % of maximum MRS2179 mean value and 1.141 % of maximum MRS2179 mean value and 5.256 % of maximum MRS2179 mean value	-24.7041 % of maximum MRS2179 mean value and -19.9635 % of maximum MRS2179 mean value and -11.9373 % of maximum MRS2179 mean value and -22.7633 % of maximum MRS2179 mean value and -19.9712 % of maximum MRS2179 mean value	behaved as inverse agonists	–	19.4 µM	4.712 ± 0.2838	inverse agonist efficacy	–	–
